Test results as given in patent publication US8975086B2, “Method for treating or preventing bladder cancer using the DEPDC1 polypeptide” (OncoTherapy Science, Inc., priority 2008, dated 2015).

How the values were obtained:
DEPDC1-ZNF224 complex = target: T1, DEPDC1-ZNF224 complex (Homo sapiens, UniProt Q9NZL3, H562R/M118V); test: Immunoprecipitation of exogenous DEPDC1-HA and ZNF224-FLAG complex in peptide-treated COS7 cells; assay type: cell-based; details: six peptides added 6 hours after transfection, immunoprecipitation fifteen hours later
T1 construct: expressed in transfected cells; host or cells: COS7 cells, transiently co-transfected (pCAGGS-type vectors)
Method: To confirm the interaction between DEPDC1 and ZNF224 in bladder cancer cells and identify the ZNF224-binding region in DEPDC1, the immunoprecipitation experiment was carried out as follows. First, it was confirmed interaction between endogenous DEPDC1 and exogenous ZNF224 by immunoprecipitation experiments using anti-DEPDC1 polyclonal antibody for immunoprecipitation and anti-FLAGM2 antibody (Amersham) for immunoblotting. To further determine the ZNF224-binding region in DEPDC1, it was cloned six partial constructs of DEPDC1 (DEPDC11-147, DEPDC1141-300, DEPDC1177-597, DEPDC1300-669, DEPDC1587-740 and DEPDC1654-811) into appropriate sites of COOH-terminal HA-tagged pCAGGS vector. The nucleotide sequence of each clones were determined with an ABI Prism 3700 DNA sequencer (Applied Biosystems, Foster City, Calif.), using each primer. Cell extracts from Cos7 cell line, transfected with each of plasmids expressing one of these six partial segments of DEPDC1, were precleared by incubation at 4 degrees C. for 1 hour with 100 micro 1 of protein G-agarose beads in final volumes of 2 mL of immunoprecipitation buffer (0.5% NP40, 50 mmol/L Tris-HCl, 150 mmol/L NaCl) in the presence of proteinase inhibitor. After centrifugation at 1,000 rpm for 5 minutes at 4 degrees C., the supernatants were incubated at 4 degrees C. with anti-HA rat for 1 hours. After the beads were collected from each sample by centrifugation at 5,000 rpm for 2 minutes and washed six times with 1 mL of immunoprecipitation buffer, the washed beads were re-suspended in 50 uL of Laemmli sample buffer and boiled for 3 minutes before the proteins were separated on 10% SDS-PAGE gels. Immunoblot was done using anti-HA rat antibody and anti-FLAGM2 monoclonal antibody, respectively (Sigma-Aldrich Co., St. Louis, Mo.).
To examine the effect of these polyarginine (11R)-linked peptides on inhibition of the DEPDC1-ZNF224 complex formation, they were co-transfected with DEPDC1 and ZNF224 constructs into COS7 cells. […] Immunoprecipitation were performed according to methods as described in “Identification of the ZNF224-binding regions in DEPDC1 protein” section.

ZNF224 transcript = test: Semiquantitative RT-PCR of knockdown effect of ZNF224 siRNA expression vectors in UM-UC-3 cells; assay type: cell-based, human; details: compared with si-EGFP control
Method: It has been previously established a vector-based RNA interference (RNAi) system, psiU6BX3.0 that was designed to express small interfering RNAs (siRNA) in mammalian cells (Shimokawa T, et al., Cancer Res 2003 63:6116-20). Plasmids designed to express siRNA to ZNF224 were prepared by cloning of double-stranded oligonucleotides into the BbsI site of psiU6BX vectors. The target sequences of the synthetic oligonucleotides for RNAi were as follows:
si-ZNF224#2: 5′-CCGCAGGAACACATCAAGA-3′ (SEQ ID NO: 10) for the ZNF224-specific sequence. DNA sequences of all constructs were confirmed by DNA sequencing. […] To evaluate the knockdown effect of siRNAs by semi-quantitative RT-PCR with specific primers (see below), total RNAs were extracted from the transfected cells after 4-day incubation with neomycin (Geneticin, Invitrogen). […]
5′-[…]-3′ (SEQ ID NO: 13) and 5′-[…]-3′ (SEQ ID NO: 14) for GAPDH as a quantitative control. The transfected UM-UC-3 cells were cultured for 21 or 14 days in the presence of 1.0 mg/ml of neomycin, and the number of colonies were counted by Giemsa staining. Viability of UM-UC-3 cells was evaluated by 3-(4,5-dimethylthiazol-2-yl)-2,5-diphenyltetrazolium bromide (MTT) assay at 14 days after the treatment of neomycin with cell counting kit-8 according to manufacturer's recommendation (Wako, Osaka, Japan). […]

UM-UC-3 cells = test: MTT and colony-formation assays of UM-UC-3 cells transfected with siRNA expression vectors; assay type: cell-based, human; details: UM-UC-3 cells transfected with siRNA expression vector, neomycin selection
Text: si-ZNF224#2: 5′-CCGCAGGAACACATCAAGA-3′ (SEQ ID NO: 10) for the ZNF224-specific sequence. DNA sequences of all constructs were confirmed by DNA sequencing. Eight-micrograms each of siRNA-expression vector were transfected into UM-UC-3 cells (1×10^6 cells per 10 cm-dish), respectively, using FuGENE6 transfection reagent (Roche) according to the supplier's recommendations. To evaluate the knockdown effect of siRNAs by semi-quantitative RT-PCR with specific primers (see below), total RNAs were extracted from the transfected cells after 4-day incubation with neomycin (Geneticin, Invitrogen). The specific primer sets for RT-PCR are as follows; 5′-[…]-3′ (SEQ ID NO: 11) and 5′-[…]-3′ (SEQ ID NO: 12) for ZNF224;
5′-[…]-3′ (SEQ ID NO: 13) and 5′-[…]-3′ (SEQ ID NO: 14) for GAPDH as a quantitative control. The transfected UM-UC-3 cells were cultured for 21 or 14 days in the presence of 1.0 mg/ml of neomycin, and the number of colonies were counted by Giemsa staining. Viability of UM-UC-3 cells was evaluated by 3-(4,5-dimethylthiazol-2-yl)-2,5-diphenyltetrazolium bromide (MTT) assay at 14 days after the treatment of neomycin with cell counting kit-8 according to manufacturer's recommendation (Wako, Osaka, Japan). Absorbance at 570 nm wavelength was measured with a Microplate Reader 550 (Bio-Rad, Hercules, Calif.). These experiments were performed in triplicate.

DLG1 = test: Quantitative RT-PCR of downstream gene DLG1 in UM-UC-3 cells; assay type: cell-based, human; details: UM-UC-3 cells transfected with siRNA, compared with siEGFP
Method: (§1) UM-UC-3 cells were transfected with siRNA against DEPDC1 (si-DEPDC1), ZNF224 (si-ZNF224-2) or EGFP (control siRNA). The target sequences of the synthetic oligo-duplex for siRNA against DEPDC1 (Sigma Aldrich) were as follows: si-DEPDC1,5′-CCAAAGUUCCGUAGUCUAA-3′(SEQ ID NO: 75), ZNF224 (si-ZNF224-2) or EGFP as described in “RNA interference assay” section.
(§2) Total RNAs were extracted from each sample at 12 hours and 24 hours after the transfection, labeled with Cy5 (for si-DEPDC1- and si-ZNF224-2-transfected cells) or Cy3 (for si-EGFP-transfected cells), and subjected to cohybridization onto cDNA microarrayslides containing 36468 cDNA or ESTs as described previously (Takata R, et al., Clin Cancer Res 2005 11:2625-36). After normalization of the data, it was excluded genes from further analysis when Cy5 and Cy3 dyes yielded signals intensities lower than the cut-off value. For other genes, the Cy5/Cy3 ratio was calculated using the raw data of each samples. […] Validation of candidate downstream genes of both DEPDC1 and ZNF224 was carried out with quantitative RT-PCR analysis using the SYBR green dye (Rhoche) and the same amplified RNAs from UM-UC-3 cells used for cDNA microarray experiments, with each gene-specific primer as follows;
(§3) All experiments were performed in duplicate. The calculated quantity of the target gene for each sample was then divided by the average calculated quantity of beta 2-microglobulin (beta 2-MG) corresponding to each sample to give a relative expression of the target gene for each sample

A20 (TNFAIP3) = test: Quantitative RT-PCR of downstream gene A20 in UM-UC-3 cells; assay type: cell-based, human; details: UM-UC-3 cells transfected with siRNA, compared with siEGFP
Method: as §1
as §2, with “After normalization of the data, it was excluded genes from further analysis when Cy5 and Cy3 dyes yielded signals intensities lower than the cut-off value.” left out
as §3

T1 sequence (Q9NZL3 whole entry M118V/H562R, one chain of several): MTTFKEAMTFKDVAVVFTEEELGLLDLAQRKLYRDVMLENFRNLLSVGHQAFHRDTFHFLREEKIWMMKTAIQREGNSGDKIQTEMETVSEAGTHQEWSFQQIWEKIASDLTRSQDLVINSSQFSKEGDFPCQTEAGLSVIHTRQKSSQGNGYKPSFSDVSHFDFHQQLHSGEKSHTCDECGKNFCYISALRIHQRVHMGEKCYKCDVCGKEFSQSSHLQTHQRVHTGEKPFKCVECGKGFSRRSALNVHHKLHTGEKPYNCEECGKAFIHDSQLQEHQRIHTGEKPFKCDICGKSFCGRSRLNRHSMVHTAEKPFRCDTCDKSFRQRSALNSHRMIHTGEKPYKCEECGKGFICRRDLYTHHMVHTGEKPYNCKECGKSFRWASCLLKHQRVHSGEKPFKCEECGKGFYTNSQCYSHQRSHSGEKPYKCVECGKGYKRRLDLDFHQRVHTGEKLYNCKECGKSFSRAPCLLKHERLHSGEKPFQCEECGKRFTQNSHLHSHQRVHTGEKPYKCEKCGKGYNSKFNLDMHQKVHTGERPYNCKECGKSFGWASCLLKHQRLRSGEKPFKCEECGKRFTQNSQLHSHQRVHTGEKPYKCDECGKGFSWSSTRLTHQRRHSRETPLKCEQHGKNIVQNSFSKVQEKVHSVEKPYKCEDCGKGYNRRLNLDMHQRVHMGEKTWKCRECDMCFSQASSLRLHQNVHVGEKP

Row | Substance | complex formation between exogenously expressed DEPDC1-HA and ZNF224-Flag (immunoprecipitation) (DEPDC1-ZNF224 complex) | amount of ZNF224 transcript (knockdown effect) (ZNF224 transcript) | growth of UM-UC-3 cell (MTT and colony-formation assays) (UM-UC-3 cells) | DLG1 transcript (quantitative RT-PCR) (DLG1) | A20 transcript (quantitative RT-PCR) (A20 (TNFAIP3))
1 | 5′-CCGCAGGAACACATCAAGA-3′ [si-ZNF224-2] |  | significantly suppressed | marked suppression growth | time-dependent increase | time-dependent increase
2 | 5′-CCAAAGUUCCGUAGUCUAA-3′ [si-DEPDC1] |  |  |  | time-dependent increase | time-dependent increase
3 | RRRRRRRRRRR-GGG-PKRHGLHLSQENGEKIKHE (RRRRRRRRRRRGGGPKRHGLHLSQENGEKIKHE; An artificially synthesised dominant negative peptide) [11R-DEP148-166, 11R-linked DEPDC1 codons 148-166 peptide] | no inhibition |  |  |  | 

Now from value to substance, other results behind:

Row | complex formation between exogenously expressed DEPDC1-HA and ZNF224-Flag (immunoprecipitation) (DEPDC1-ZNF224 complex) | Substance | amount of ZNF224 transcript (knockdown effect) (ZNF224 transcript) | growth of UM-UC-3 cell (MTT and colony-formation assays) (UM-UC-3 cells) | DLG1 transcript (quantitative RT-PCR) (DLG1) | A20 transcript (quantitative RT-PCR) (A20 (TNFAIP3))
4 | no inhibition | RRRRRRRRRRR-GGG-NGEKIKHEIINEDQENAI (RRRRRRRRRRRGGGNGEKIKHEIINEDQENAI; An artificially synthesised dominant negative peptide) [11R-DEP159-176, 11R-linked DEPDC1 codons 159-176 peptide] |  |  |  | 
5 | no inhibition | RRRRRRRRRRR-GGG-ISRMSQNVDMPKLHDAMG (RRRRRRRRRRRGGGISRMSQNVDMPKLHDAMG; An artificially synthesised dominant negative peptide) [11R-DEP624-641, 11R-linked DEPDC1 codons 624-641 peptide] |  |  |  | 
